In patent US10159672B2 (PARION SCIENCES, INC., priority 2011, dated 2018):

Molecular target: T1, ENaC (Canis lupus familiaris, UniProt A0A8I3MKE6+A0A8I3Q679+Q95165)
T1 construct: using primary cultures of canine bronchial epithelial cells; endogenous in cells; host or cells: primary canine bronchial epithelial cells cultured at air-liquid interface
T1 sequence (A0A8I3Q679 1-649): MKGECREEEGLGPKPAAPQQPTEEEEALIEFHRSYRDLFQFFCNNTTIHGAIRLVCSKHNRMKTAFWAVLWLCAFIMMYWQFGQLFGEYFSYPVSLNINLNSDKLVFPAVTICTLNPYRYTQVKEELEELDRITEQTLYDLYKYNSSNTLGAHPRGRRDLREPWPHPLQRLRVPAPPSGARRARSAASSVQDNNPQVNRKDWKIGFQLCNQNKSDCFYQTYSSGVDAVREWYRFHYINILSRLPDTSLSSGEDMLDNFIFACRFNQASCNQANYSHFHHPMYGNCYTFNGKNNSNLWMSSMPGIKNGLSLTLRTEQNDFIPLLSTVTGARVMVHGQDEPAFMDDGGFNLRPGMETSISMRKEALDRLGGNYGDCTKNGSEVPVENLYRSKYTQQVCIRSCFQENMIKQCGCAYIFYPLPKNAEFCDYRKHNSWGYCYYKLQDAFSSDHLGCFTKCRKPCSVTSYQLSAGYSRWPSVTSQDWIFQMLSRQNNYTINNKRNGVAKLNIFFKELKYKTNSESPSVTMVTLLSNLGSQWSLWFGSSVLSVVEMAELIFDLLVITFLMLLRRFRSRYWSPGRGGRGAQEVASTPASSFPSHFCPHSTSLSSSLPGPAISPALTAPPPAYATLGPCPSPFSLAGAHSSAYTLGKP
T1 sequence (Q95165 1-641): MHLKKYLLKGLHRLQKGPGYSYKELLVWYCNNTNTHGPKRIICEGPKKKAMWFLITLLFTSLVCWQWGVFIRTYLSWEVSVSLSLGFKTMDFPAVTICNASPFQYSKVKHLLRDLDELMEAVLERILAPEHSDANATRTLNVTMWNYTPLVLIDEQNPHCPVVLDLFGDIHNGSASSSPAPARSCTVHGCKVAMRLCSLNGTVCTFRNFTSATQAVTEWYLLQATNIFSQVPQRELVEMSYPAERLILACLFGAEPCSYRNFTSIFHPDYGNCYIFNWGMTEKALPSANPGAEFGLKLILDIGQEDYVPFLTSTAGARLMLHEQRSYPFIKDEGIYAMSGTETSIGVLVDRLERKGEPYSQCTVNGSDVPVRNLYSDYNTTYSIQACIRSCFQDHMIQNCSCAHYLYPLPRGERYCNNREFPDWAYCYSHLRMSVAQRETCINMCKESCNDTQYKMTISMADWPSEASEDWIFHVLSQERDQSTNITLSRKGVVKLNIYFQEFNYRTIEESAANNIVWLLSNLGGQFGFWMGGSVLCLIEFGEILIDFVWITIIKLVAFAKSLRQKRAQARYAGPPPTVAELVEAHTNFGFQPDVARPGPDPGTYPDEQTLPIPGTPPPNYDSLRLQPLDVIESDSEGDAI
T1 sequence (A0A8I3MKE6 1-646): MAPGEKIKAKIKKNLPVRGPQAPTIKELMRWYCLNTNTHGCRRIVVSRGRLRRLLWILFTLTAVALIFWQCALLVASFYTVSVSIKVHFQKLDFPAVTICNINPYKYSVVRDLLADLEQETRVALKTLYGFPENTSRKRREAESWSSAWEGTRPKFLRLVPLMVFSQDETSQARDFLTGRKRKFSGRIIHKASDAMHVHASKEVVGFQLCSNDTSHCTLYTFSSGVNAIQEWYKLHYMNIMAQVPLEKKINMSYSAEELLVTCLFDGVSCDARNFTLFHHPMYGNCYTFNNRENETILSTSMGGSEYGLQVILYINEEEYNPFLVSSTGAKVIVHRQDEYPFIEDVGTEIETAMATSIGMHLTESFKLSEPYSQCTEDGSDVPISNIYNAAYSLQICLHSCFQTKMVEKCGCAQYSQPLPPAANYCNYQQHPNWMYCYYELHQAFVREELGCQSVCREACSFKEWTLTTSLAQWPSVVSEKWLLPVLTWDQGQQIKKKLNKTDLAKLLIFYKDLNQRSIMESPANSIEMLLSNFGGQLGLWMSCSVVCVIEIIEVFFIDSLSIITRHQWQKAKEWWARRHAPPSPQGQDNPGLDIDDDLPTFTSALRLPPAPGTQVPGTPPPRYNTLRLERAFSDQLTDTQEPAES
Test: In vitro sodium channel blocking activity and reversibility (short circuit current, Ussing chambers)
Assay type: cell-based, canine
Description: One assay used to assess mechanism of action and/or potency of the compounds of the present invention involves the determination of lumenal drug inhibition of airway epithelial sodium currents measured under short circuit current (ISC) using airway epithelial monolayers mounted in Ussing chambers. Cells obtained from freshly excised human, dog, sheep or rodent airways are seeded onto porous 0.4 micron Snapwell™ Inserts (CoStar), cultured at air-liquid interface (ALI) conditions in hormonally defined media, and assayed for sodium transport activity (ISC) while bathed in Krebs Bicarbonate Ringer (KBR) in Using chambers. All test drug additions are to the lumenal bath with half-log dose addition protocols (from 1×10^−11 M to 3×10^−5 M), and the cumulative change in ISC (inhibition) recorded. All drugs are prepared in dimethyl sulfoxide as stock solutions at a concentration of 1×10^−2 M and stored at −20° C. […] After the maximal concentration ([…]) is administered, the lumenal bath is exchanged three times with fresh drug-free KBR solution, and the resultant ISC measured after each wash for approximately 5 minutes in duration. Reversibility is defined as the percent return to the baseline value for sodium current after the third wash. All data from the voltage clamps are collected via a computer interface and analyzed off-line.
Dose-effect relationships for all compounds are considered and analyzed by the Prism 3.0 program. […] The potency of the sodium channel blocking activity of representative compounds in freshly excised cell from canine airways is shown in Table 2.

In the case of `CN(C)C(=O)[C@H](CCCCNC(=N)N)NC(=O)[C@H](CCc1ccc(CCCCNC(=N)NC(=O)c2nc(Cl)c(N)nc2N)cc1)N(C)C` [Compound I, 3,5-diamino-6-chloro-N-(N-(4-(4-((S)-3-(dimethylamino)-4-((S)-1-(dimethylamino)-6-guanidino-1-oxohexan-2-ylamino)-4-oxobutyl)phenyl)butyl)carbamimidoyl)pyrazine-2-carboxamide], the “Potency compared to amiloride” value (Ussing chamber, primary cultures of canine bronchial epithelial cells) is reported as over 100 fold, the IC50 (canine bronchial epithelial cells, n=5, read-out: Potency (IC50) on Canine Bronchial Epithelial Cells) is reported as 5.3 nM and the Emax (with 3 washes, n=3, read-out: Reversal of Maximal Effect on Canine Bronchial Epithelial Cells (effect lost)) is reported as 6.8 ± 5.1%.
